Measured values: patent US6462064B1, “Apoptosis inducing adamantyl derivatives and their usage as anti-cancer agents, especially for cervical cancers and dysplasias” (Galderma Research & Development S.N.C., priority 1996, dated 2002)
“Also recorded” adds a separate entry of the source.

Legend:
[1] = system: human pancreatic cancer BxPC-3 tumor cells; assay: Human xenograft mouse animal model, pancreatic cancer BxPC-3; format: in vivo; settings: 80 mg/kg intraperitoneally, starting 28 days after inoculation; compared to vehicle control group; FIG. 5
Experimental: The anti cancer activity of a compound according to the invention, 6-[3-(1-adamantyl)-4,5-methylenedioxyphenyl]-2-naphthoic acid was also evaluated in a human xenograft mouse animal model containing human pancreatic cancer BxPC-3 tumor cells. Starting twenty-eight days after inoculation of tumor cells, said xenograft containing mice were administered the retinoid compound intraperitoneally at a dosage of 80 mg/kg body weight. Also, a control group of said mice was inoculated under similar conditions with the pharmaceutical vehicle used for formulation (but lacking the retinoid compound).

cancer cells = assay: List of active compounds: types of cancers and precancers active against; format: cell-based
From the text: As discussed, the adamantyl retinoid derivatives according to the invention which induce apoptosis are useful for treating many different types of cancers.

[2] = system: human cervical cancer cell lines (C33A cells and Caski cells); assay: Proliferation of human cervical cancer cell lines (Example 33, FIG. 7); format: cell-based
Experimental: Another experiment was also conducted to compare the effect of three different retinoid compounds according to the invention, i.e., 6-[3-(1-adamantyl)-4-methoxyphenyl]-2-naphthoic acid, 2-[3-(1-adamantyl)-4-methoxyphenyl]-5-benzimidazole carboxylic acid, and 6-[3-(1-adamantyl)-4,5-methylenedioxyphenyl]-2-naphthoic acid, a control (DMSO), and a control retinoid (all-trans retinoic acid) on the proliferation of several human cervical cancer cell lines (C33A cells and Caski cells).

[3] = system: various human cancer cell lines; assay: Anti-cancer activity against human cancer cell lines over a concentration range (FIGS. 2-4); format: cell-based; settings: retinoid concentrations 10^−9 M to 10^−5 M
From the text: FIG. 2 compares the activity of selected adamantyl retinoids according to the invention and all-trans-retinoic acid against a human non-small lung carcinoma cell line.
FIG. 3 compares the activity of selected adamantyl retinoids according to the invention and all-trans-retinoic acid against human prostate adenocarcinoma, human metastatic prostate adenocarcinoma, and human prostate carcinoma cell lines.
FIG. 4 compares the activity of selected adamantyl retinoids according to the invention and all-trans-retinoic acid against a human liver cancer cell line.

O=C(O)c1ccc2cc(-c3cc4c(c(C56CC7CC(CC(C7)C5)C6)c3)OCO4)ccc2c1 [Compound 6, 6-[3-(1-adamantyl)-4,5-methylenedioxyphenyl]-2-naphthoic acid]
tumor size [1]: substantial reduction in tumor size | Types of Cancers and Precancers Active Against (cancer cells): brain, breast, head and neck,; also recorded: kidney, leukemia, lung, lym-; also recorded: phoma, myeloma, ovarian,; also recorded: prostate, skin, liver, cervical; also recorded: (including, e.g., cervical; also recorded: intraepithelial neoplasia I, II,; also recorded: III), | effect on proliferation of human cervical cell lines [2]: strong inhibitory effect | anti-cancer activity [3]: significant anti-cancer activity
